Source: patent publication US9113629B2, “4-amino-6-(4-substituted-phenyl)-picolinates and 6-amino-2-(4-substituted-phenyl)-pyrimidine-4-carboxylates and their use as herbicides” (DOW AGROSCIENCES LLC, priority 2013, dated 2015)
Where two headings read alike, the source gives them in different places.

How the values were obtained:
[1] = system: Key Grass and Sedge Weeds as well as Grass Crops; assay: Post-emergent Test II herbicidal activity (Table 6); assay type: in vivo; conditions: post-emergence, 336 h; for pest or weed control at 70 g/ha: application rate 70 g ai/ha; for pest or weed control at 140 g/ha: application rate 140 g ai/ha
Summary of the method: (§1)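 Plants grown in Metro-Mix 360 (pH 6.0–6.8) in a greenhouse (~15 h photoperiod, 23–29 °C day) to first or second true leaf stage, then sprayed with compound in acetone/DMSO/aqueous crop-oil-surfactant carrier at 187 L/ha by track sprayer. Injury visually scored 0–100% versus untreated plants after 14 d.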

[2] = system: Key Broadleaf Weed and Crop Species; assay: Post-emergent Test II herbicidal activity (Table 5); assay type: in vivo; conditions: post-emergence, 336 h, post-emergent, 14 days after application; for pest or weed control at 70 g/ha: 70 g ai/ha; for pest or weed control at 140 g/ha: 140 g ai/ha
Summary of the method: as §1

[3] = Triticum aestivum, TRZSS (wheat), read-out: Visual Growth Reduction (%) 14 Days After Application, TRZSS
[4] = CYPES: yellow nutsedge (Cyperus esculentus), read-out: Visual Growth Reduction (%) 14 Days After Application, CYPES
[5] = DIGSA: crabgrass (Digitaria sanguinalis), read-out: Visual Growth Reduction (%) 14 Days After Application, DIGSA
[6] = ECHCG: barnyardgrass (Echinochloa crus-galli), read-out: Visual Growth Reduction (%) 14 Days After Application, ECHCG
[7] = ORYSA: rice (Oryza sativa), read-out: Visual Growth Reduction (%) 14 Days After Application, ORYSA
[8] = SETFA: giant foxtail (Setaria faberi), read-out: Visual Growth Reduction (%) 14 Days After Application, SETFA
[9] = SORVU: grain sorghum (Sorghum vulgare), read-out: Visual Growth Reduction (%) 14 Days After Application, SORVU
[10] = ZEAMX: maize, corn (Zea mays), read-out: Visual Growth Reduction (%) 14 Days After Application, ZEAMX
[11] = ABUTH: velvetleaf (Abutilon theophrasti), read-out: Visual Growth Reduction (%) 14 Days After Application ABUTH
[12] = AMARE: redroot pigweed (Amaranthus retroflexus), read-out: Visual Growth Reduction (%) 14 Days After Application AMARE
[13] = BRSNN: oilseed-rape, canola (Brassica napus), read-out: Visual Growth Reduction (%) 14 Days After Application BRSNN
[14] = CHEAL: lambsquarters (Chenopodium album), read-out: Visual Growth Reduction (%) 14 Days After Application CHEAL
[15] = EPHHL: wild poinsettia (Euphorbia heterophylla), read-out: Visual Growth Reduction (%) 14 Days After Application EPHHL
[16] = HELAN: sunflower (Helianthus annuus), read-out: Visual Growth Reduction (%) 14 Days After Application HELAN
[17] = VIOTR: wild pansy (Viola tricolor), read-out: Visual Growth Reduction (%) 14 Days After Application VIOTR

COC(=O)c1nc(-c2cc(F)c(F)cc2F)c(F)c(N)c1Cl [Compound 200, Methyl 4-amino-3-chloro-5-fluoro-6-(2,4,5-trifluorophenyl)picolinate]
95 to 100%: pest or weed control at 70 g/ha [2, 11] | pest or weed control at 140 g/ha [2, 11] | pest or weed control at 70 g/ha [2, 12] | pest or weed control at 140 g/ha [2, 12] | pest or weed control at 70 g/ha [2, 13] | pest or weed control at 140 g/ha [2, 13] | pest or weed control at 70 g/ha [2, 14] | pest or weed control at 140 g/ha [2, 14] | pest or weed control at 70 g/ha [2, 15] | pest or weed control at 140 g/ha [2, 15] | pest or weed control at 140 g/ha [2, 16] | pest or weed control at 140 g/ha [2, 17]
30 to 44%: pest or weed control at 70 g/ha [1, 3] | pest or weed control at 140 g/ha [1, 3]
85 to 94%: pest or weed control at 70 g/ha [2, 16]
45 to 59%: pest or weed control at 140 g/ha [1, 4] | pest or weed control at 70 g/ha [1, 8] | pest or weed control at 70 g/ha [1, 10]
60 to 74%: pest or weed control at 140 g/ha [1, 10]
0 to 29%: pest or weed control at 70 g/ha [1, 4] | pest or weed control at 70 g/ha [1, 7] | pest or weed control at 140 g/ha [1, 7] | pest or weed control at 70 g/ha [1, 9] | pest or weed control at 140 g/ha [1, 9]
75 to 84%: pest or weed control at 70 g/ha [1, 5] | pest or weed control at 140 g/ha [1, 5] | pest or weed control at 70 g/ha [1, 6] | pest or weed control at 140 g/ha [1, 6] | pest or weed control at 140 g/ha [1, 8] | pest or weed control at 70 g/ha [2, 17]
